Like-named read-outs stand apart in the source and are kept apart here.
Legend:
healthy adults = assay: Phase 1 clinical trial of Compound 12 Ophthalmic Solution, safety and tolerability; format: in vivo, human
Source text: The objectives of the trial were to measure safety and tolerability, and pharmacokinetics in tear and plasma. The dosing schedule (OU; Oculus Uterque (each eye or both eyes)) was divided into 3 periods, each separated by a 72-hour wash out interval: once/day×1 day (drug one eye; placebo fellow eye), twice/day×10 days, and thrice/day×10 days, 14-day observation. Slit lamp examination of the eye, BCVA (Best Corrected Visual Acuity), STTs (Schirmer Tear Test), TBUT (Tear Break-Up Time), IOP (Intraocular pressure) were assessed at screening and the beginning and end of each period. For each cohort, masked safety data was reviewed by a Safety Committee prior to allowing dose escalation of the next cohort. A total of 2856 doses (102 drops/subject) were administered over 1148 total subject study days (41 study days/subject) in 56 eyes. All subjects in all cohorts completed the study, and no study drug doses were missed.

dogs [1] = assay: Pilot ocular tolerance of topically administered Compound 12 in dogs-PK; format: in vivo, dog; details: up to 10% strength at 3 doses/day
[2] = as above; format: in vivo, dog; details: dog, vitreous fluid, topical; TID for three days with 3.5 mg/eye (10%); ranged from BLOQ; read-out: levels in the vitreous fluid
in vivo [3] = details: dog, iv
in vivo [4] = details: rat, iv
[5] = Single dose ocular and IV ADME with [^14C]-Compound 12 in dogs; format: in vivo, dog
Source text: Following an ocular dose, the highest average [^14C]-Compound 12 levels were detected in anterior ocular tissues (see FIG. 16). […] No differences in results from male and female dogs were observed.

[6] = test system: SEB stimulated IL-2 release in whole human blood; assay: cells; format: cell-based; details: read-out: IC50 inhibition of SEB stimulated IL-2 release in whole human blood
[7] = test system: human mononuclear cells (PBMC) stimulated with staphylococcal enterotoxin B (SEB); assay: cells; format: cell-based
[8] = 13-week IV toxicity study in rats with 4-week recovery (with plasma exposure); details: rat; for AUC: AUC0-n
rabbits = assay: Single dose ocular tolerance in rabbits; format: in vivo, rabbit; details: (10%)
[9] = Tear PK after a single topical ocular instillation in rabbits
dogs (beagles) = assay: Cardiovascular effects in conscious telemetry-instrumented dogs, IV bolus; format: in vivo, dog; details: IV bolus injection
in vivo [10] = details: topical or ocular
rats = assay: CNS effects in rats, single bolus IV injection; format: in vivo, rat
Source text: No effect on any other parameters was observed.

[11] = Acute toxicity, single dose IV in rats; details: rat, in vivo
Experimental: 4. Acute Toxicity Studies: For single dose IV in rats, the no observable adverse effect level (NOAEL) was 10 mg/kg IV. For escalating single dose IV and 7-day repeated dose with TK (toxicokinetics) in dogs, the NOAEL was 10 mg/kg IV. For single dose ocular tolerance in rabbits, the NOAEL was 3.5 mg/eye/3× per day (10%).

dogs [12] = assay: 13-week ocular toxicity study in dogs with 4-week recovery (with TK); details: (3%)
[13] = test system: Chinese hamster ovary (CHO) cells; assay: In vitro chromosomal aberration assay in CHO cells; format: cell-based; details: with and without metabolic activation, except single toxic dose 3500 μg/mL, 3-hour
Source text: The biological relevance of this response is equivocal due to cytotoxicity.

CD-1 (ICR) BR mice = assay: In vivo mouse bone marrow micronucleus assay; details: repeated IV administrations
Pilot rat dermal study = format: in vivo; details: 1% lotion, ointment, gel, DMSO; TID 7 days, 10 mg/cm^2 on about 6 cm^2
Experimental: The safety and tolerability of prototypical dermal formulations (1% lotion, ointment, and gel) were assessed on rats given TID for seven consecutive days—approximately 6 cm^2 with 10 mg/cm^2.

in vivo [14] = details: rabbit, topical or ocular
[15] = Plasma PK after a single topical ocular instillation (dogs and rabbits)
[16] = 3 mg/kg, 3 mg/kg daily IV bolus, Day 1
[17] = 3 mg/kg, 3 mg/kg daily IV bolus, Week 13
[18] = 10 mg/kg, 10 mg/kg daily IV bolus, Day 1
[19] = 10 mg/kg, 10 mg/kg daily IV bolus, Week 13
[20] = 30 mg/kg, 30 mg/kg daily IV bolus, Day 1
[21] = 30 mg/kg, 30 mg/kg daily IV bolus, Week 13
[22] = rabbit, in vivo, topical or ocular, 1.05 mg
[23] = single instillation of 0.1, 1.0 or 3.0% dose strength
[24] = in vivo, topical or ocular, 1.05 mg

CS(=O)(=O)c1cccc(C[C@H](NC(=O)c2c(Cl)cc3c(c2Cl)CCN(C(=O)c2ccc4ccoc4c2)C3)C(=O)O)c1 [Compound 12]
deaths, discontinuations, serious or severe AEs considered related to drug (healthy adults; 0.1%, 0.3%, 1% and 5% dose strengths, any dose regimen): No deaths, discontinuations, serious or severe ocular or non-ocular AEs | overall safety and tolerability, topical ocular instillation (healthy adults; dose strengths up to 5% TID): safe and well-tolerated | localized ocular irritation or infection (healthy adults; human, in vivo): no evidence of localized ocular irritation or infection | Blood pressure, heart rate, respiratory rate, temperature, body weight, and EKG results (healthy adults; throughout the trial): within normal ranges | Total lymphocyte count, CD3, CD4, and CD8 cell counts (healthy adults; throughout the trial): within normal ranges with no evidence of lymphocyte or neutrophil suppression | ocular safety and tolerability (dogs [1]): safe and well tolerated | concentration at 3 days [2]: ≤ 18 ng/mL | NOAEL at 4 week (in vivo [3]): 10 mg/kg | NOAEL at 13 week (in vivo [4]): 30 mg/kg | levels in conjunctiva/cornea ([5]; dog, for 16 hrs): greater than 1 micromolar | metabolites in pooled plasma, urine and fecal homogenate ([5]; up to 168 hrs post-dose, 3 mg/eye or 3 mg/dog): no metabolites detected | IC50 [6]: 0.069 µM | EC50 ([7]; read-out: EC50 Cytokine Release GM-CSF): 0.545 µM | EC50 ([7]; read-out: EC50 Cytokine Release IFNγ): 0.0016 µM | EC50 ([7]; read-out: EC50 Cytokine Release IL-1α): 0.24 µM | EC50 ([7]; read-out: EC50 Cytokine Release IL-1β): 0.36 µM | EC50 ([7]; read-out: EC50 Cytokine Release IL-2): 0.0018 µM | EC50 ([7]; read-out: EC50 Cytokine Release IL-3): 52.2 µM | EC50 ([7]; read-out: EC50 Cytokine Release IL-4): 0.143 µM | EC50 ([7]; read-out: EC50 Cytokine Release IL-5): 0.11 µM | EC50 ([7]; read-out: EC50 Cytokine Release IL-6): 43.5 µM | EC50 ([7]; read-out: EC50 Cytokine Release IL-10): 0.147 µM | EC50 ([7]; read-out: EC50 Cytokine Release IL-12p40): > 1000 µM | EC50 ([7]; read-out: EC50 Cytokine Release IL-13): 0.36 µM | EC50 ([7]; read-out: EC50 Cytokine Release IP-10): 1.16 µM | EC50 ([7]; read-out: EC50 Cytokine Release MCP-1): 0.005 µM | EC50 ([7]; read-out: EC50 Cytokine Release MIP-1α): 0.02 µM | EC50 ([7]; read-out: EC50 Cytokine Release TNF-α): 0.076 µM | IC50 ([7]; read-out: IC50 values in in vitro cell assays (cell attachment and SEB IL-2 release)): 0.002 µM | AUC [8, 16]: 148 ng·h/mL | AUC [8, 17]: 241 ng·h/mL | Cmax [8, 16]: 305 ng/mL | Cmax [8, 17]: 378 ng/mL | AUC [8, 18]: 536 ng·h/mL | AUC [8, 19]: 907 ng·h/mL | Cmax [8, 18]: 1050 ng/mL | Cmax [8, 19]: 1690 ng/mL | AUC [8, 20]: 2350 ng·h/mL | AUC [8, 21]: 7470 ng·h/mL | Cmax [8, 20]: 5120 ng/mL | Cmax [8, 21]: 16900 ng/mL | NOAEL (rabbits): 3.5 mg/eye/3× per day | AUC [9, 22]: 183000 ng·h/mL | Cmax [9, 22]: 314000 ng/mL | time of return of tear concentration to baseline [9, 23]: ≤ 4 h | time to maximal mean tear concentration [9, 23]: ≤ 30 min | effects on electrocardiography or hemodynamic parameters (dogs (beagles)): No effects | AUC (in vivo [10]; 0.105 mg): 5.19 ± 5.39 ng·h/mL | Cmax (in vivo [10]; 0.105 mg): 11.7 ± 8.8 ng/mL | AUC (in vivo [10]; 0.35 mg): 7.35 ± 1.52 ng·h/mL | Cmax (in vivo [10]; 0.35 mg): 13.1 ± 2.12 ng/mL | CNS observation (rats; 10.0 mg/kg IV, 1 minute to 6 hours postdose in 2/6 animals at each time point): Transient miosis | effect on any other CNS parameters (rats; single bolus IV): No effect | NOAEL [11]: 10 mg/kg | NOAEL (dogs [12]): 1.05 mg/eye/3× per day | structural chromosomal aberrations in CHO cells [13]: negative | mouse bone marrow micronucleus assay (CD-1 (ICR) BR mice): negative | serum level after dermal dosing (Pilot rat dermal study): detectable in serum | AUC (in vivo [14]; 0.105 mg): 18900 ng·h/mL | Cmax (in vivo [14]; 0.105 mg): 34000 ng/mL | AUC (in vivo [14]; 0.35 mg): 18900 ng·h/mL | Cmax (in vivo [14]; 0.35 mg): 21500 ng/mL | AUC [15, 24]: 22.9 ± 10.1 ng·h/mL | Cmax [15, 24]: 38.9 ± 19.7 ng/mL | time of decline of plasma concentration to baseline levels ([15]; topical ocular instillation): about 4 hours | time of maximum plasma concentration post-dose ([15]; topical ocular instillation): about 0.25 hrs
